Test results as given in patent publication US7892782B2 (priority 1998, dated 2011).

How the values were obtained:
[1] = system: M. tuberculosis persister cells; details: data not shown
Staphylococcus aureus = type: cell-based; details: stationary phase ≅10^9 bacteria/ml, 100 μg/ml ampicillin, 3 days
M. tuberculosis [2] = test: RT-PCR of gene transcripts before and after rifampicin treatment; type: cell-based, Mycobacterium tuberculosis; details: 12 hours in growth medium alone
Protocol: The metabolic state of bacilli before and after rifampicin treatment was also assessed by examining total RNA which was extracted. RT-PCR was performed on the following genes; rpoB which encodes the rifampicin target (RNA polymerase sub-unit B); 16 kDa protein α-crystallin homolog); 16S rRNA and two Sigma 70 homologues, sigA and sigB.

M. tuberculosis H37Rv = type: cell-based, Mycobacterium tuberculosis
M. tuberculosis [3] = test: Incorporation of [3H]-uridine into RNA after addition of rifampicin; type: cell-based, Mycobacterium tuberculosis
Protocol: For incorporation of radioactive uridine, 10 ml of the culture for each time point was washed twice to remove the remaining rifampicin and then resuspended in 10 ml 7H9 medium followed by incubation with 10 μCi/ml of [^3H]-uridine for 20 hours. For 5* the culture was not washed after incubation with rifampicin and 10 μCi/ml of [^3H]-uridine was added to the culture which was further incubated in the presence of rifampicin for 20 hours. The RNA was extracted by methods known in the art. The RNA [^3H]-uridine incorporation was determined as counts per minute of trichloroacetic acid precipitated RNA. The results were confirmed in three independent experiments.

Escherichia coli K12 = type: cell-based; details: stationary phase ≅10^9 bacteria/ml, 50 μg/ml kanamycin, 3 days

With `O=C(O)CN(CCN(CC(=O)O)CC(=O)O)CC(=O)O` [EDTA] the “effect on persister cell walls and efficacy of rifampicin” value [1] was “permeabilizes persister cell walls and increases the efficacy of rifampicin”.
With `CC1(C)S[C@@H]2[C@H](NC(=O)[C@H](N)c3ccccc3)C(=O)N2[C@H]1C(=O)O` [ampicillin] the “phenotypically resistant subpopulation remaining” value (Staphylococcus aureus) was ~10^5 bacteria/ml.
`CO[C@H]1/C=C/O[C@@]2(C)Oc3c(C)c(O)c4c(O)c(c(/C=N/N5CCN(C)CC5)c(O)c4c3C2=O)NC(=O)/C(C)=C\C=C\[C@H](C)[C@H](O)[C@@H](C)[C@@H](O)[C@@H](C)[C@H](OC(C)=O)[C@@H]1C` [rifampicin] was tested, and the “increase of level of transcription (16K, sigA and rpoB transcripts) after removal of rifampicin” value (M. tuberculosis [2]) was 5- to 10 fold, the Broth counts (M. tuberculosis H37Rv) was 10^2 bacteria/ml and the “Broth dilution counts of rifampicin treated cultures” value (M. tuberculosis H37Rv) was 10^2 bacteria/ml. For the same compound, the “[3H]-uridine incorporation” value (M. tuberculosis [3]; 100 μg/ml rifampicin 1 day, washed, then 20 h with [3H]-uridine) was 2228 ± 88 counts per minute, the “[3H]-uridine incorporation” value (M. tuberculosis [3]; 100 μg/ml rifampicin 2 days, washed, then 20 h with [3H]-uridine) was 2316 ± 120 counts per minute and the “[3H]-uridine incorporation” value (M. tuberculosis [3]; 100 μg/ml rifampicin 3 days, washed, then 20 h with [3H]-uridine) was 2430 ± 54 counts per minute. For the same compound, the “[3H]-uridine incorporation” value (M. tuberculosis [3]; 100 μg/ml rifampicin 4 days, washed, then 20 h with [3H]-uridine) was 2318 ± 126 counts per minute, the “[3H]-uridine incorporation” value (M. tuberculosis [3]; 100 μg/ml rifampicin 5 days, washed, then 20 h with [3H]-uridine) was 2388 ± 20 counts per minute and the “[3H]-uridine incorporation” value (M. tuberculosis [3]; 5*: 5 days, not washed, [3H]-uridine 20 h in the presence of rifampicin) was 518 ± 10 counts per minute. The “increase of radioactive uridine incorporation after removal of rifampicin” value (M. tuberculosis [3]; medium alone versus in the presence of rifampicin (5 versus 5* days)) was “about 5 fold”.
With `NC[C@H]1O[C@H](O[C@H]2[C@H](O)[C@@H](O[C@H]3O[C@H](CO)[C@@H](O)[C@H](N)[C@H]3O)[C@H](N)C[C@@H]2N)[C@H](O)[C@@H](O)[C@@H]1O` [kanamycin] the “phenotypically resistant subpopulation remaining” value (Escherichia coli K12) was ~10^5 bacteria/ml.
